Test results published in patent publication US20240091110A1, “Oral Care Compositions and Methods of Use” (Colgate-Palmolive Company, priority 2019, published 2024).

System: mixed species biofilm
Assay: Seahorse XFe Extracellular Flux Analyzer, Mitochondrial Respiration - Oxygen Consumption Rate (OCR) in mixed biofilm assay
Assay type: cell-based
Description: Samples with varying amounts of cannabidiol (CBD) are assessed for their effects on cellular metabolism with and without various source of zinc. Using the Seahorse XF^e Extracellular Flux Analyzer, biofilm samples are grown for 48 hrs. […] The biofilms are harvested for culture. Diluted biofilm and toothpaste slurry are loaded to each well. Glycolysis—Extracellular Acidification Rate (ECAR) and Mitochondrial Respiration—Oxygen Consumption Rate (OCR) is measured for 25-50 cycles (˜360 minutes). The “CBD Oil” is 5% CBD (by wt. of the CBD Oil) in Hemp seed oil.
Where the “OCR” is oxygen consumption rate units as measured using the Seahorse XF^e Extracellular Flux Analyzer: […]

SMILES | Average (OCR) (Table 3, separate experiment, stannous slurry, untreated 11489.9) | Average (OCR) (Table 1, CBD and zinc lactate, biofilm grown 48 hrs, untreated 25,669.50)
[F][Sn][F] [0.2% by wt. Stannous Fluoride, Stannous Fluoride] | 10440.7 | 
CC(O)C(=O)[O-].CC(O)C(=O)[O-].[Zn+2] (centres unmarked) [1.5% Zinc Lactate, Zinc Lactate] |  | 21,900.63
